From patent US6160004A, “C-10 carbon-substituted artemisinin-like trioxane compounds having antimalarial, antiproliferative and antitumor activities” (priority 1998, dated 2000)
Where two headings read alike, the source gives them in different places.

Tests used:
[1] = test system: CCRF-CEM; experiment: cells; type: cell-based; details: Homo sapiens, 48 h; for CC50: read-out: Log10 LC50 (converted)
[2] = test system: K-562; experiment: cells; type: cell-based; details: Homo sapiens; for CC50: read-out: Log10 LC50 (converted)
[3] = test system: SR; experiment: cells; type: cell-based; details: Homo sapiens, 48 h; for CC50: read-out: Log10 LC50 (converted)
[4] = test system: HOP-92; experiment: cells; type: cell-based; details: Homo sapiens
[5] = test system: NCI-H23; experiment: cells; type: cell-based; details: Homo sapiens; NCI-H23, non-small cell lung cancer, 48 h; read-out: Log10 LC50 (converted)
[6] = test system: HCT-116; experiment: cells; type: cell-based; details: Homo sapiens, HCT-116, 48 h
[7] = test system: HCT-15; experiment: cells; type: cell-based; details: Homo sapiens, read-out: Log10 LC50 (converted)
[8] = test system: HT29; experiment: cells; type: cell-based; details: Homo sapiens
[9] = test system: SF-268; experiment: cells; type: cell-based; details: Homo sapiens; for CC50: read-out: Log10 LC50 (converted)
[10] = test system: SNB-19; experiment: cells; type: cell-based; details: Homo sapiens; for CC50: read-out: Log10 LC50 (converted)
[11] = test system: SK-MEL-28; experiment: cells; type: cell-based; details: Homo sapiens; for CC50: read-out: Log10 LC50 (converted); for IC (TGI): read-out: Log10 TGI
[12] = test system: UACC-257; experiment: cells; type: cell-based
[13] = test system: OVCAR-3; experiment: cells; type: cell-based; details: Homo sapiens; for CC50: read-out: Log10 LC50 (converted)
[14] = test system: OVCAR-5; experiment: cells; type: cell-based; details: Homo sapiens
[15] = test system: OVCAR-8; experiment: cells; type: cell-based; details: Homo sapiens, OVCAR-8, 48 h, read-out: Log10 LC50 (converted)
[16] = test system: SK-OV-3; experiment: cells; type: cell-based; details: Homo sapiens; for IC (TGI): read-out: Log10 TGI (converted)
[17] = test system: A498; experiment: cells; type: cell-based; details: Homo sapiens
[18] = test system: CAKI-1; experiment: NCI 60 cell line panel screening assay (SRB), CAKI-1; type: cell-based; details: Homo sapiens, CAKI-1, renal cancer, 48 h
[19] = test system: SN12C; experiment: NCI 60 cell line panel screening assay (SRB), SN12C; type: cell-based; details: Homo sapiens, 48 h
[20] = test system: TK-10; experiment: cells; type: cell-based; details: Homo sapiens; for CC50: read-out: Log10 LC50 (converted)
[21] = test system: DU-145; experiment: cells; type: cell-based
[22] = test system: MCF7; experiment: cells; type: cell-based; details: Homo sapiens
[23] = test system: MDA-N; experiment: NCI 60 cell line panel screening assay (SRB), MDA-N; type: cell-based; details: Homo sapiens, breast cancer, 48 h
[24] = test system: BT-549; experiment: cells; type: cell-based; details: Homo sapiens, read-out: Log10 LC50 (converted)
[25] = test system: NCI-H322M; experiment: cells; details: Homo sapiens, 48 h; for CC50: read-out: Log10 LC50 (converted)
[26] = test system: 60 cell line panel; experiment: NCI 60 cell line panel, whole panel; details: panel
[27] = test system: M14; experiment: NCI 60 cell line panel screening assay (SRB), M14; details: Homo sapiens, M14, 48 h
[28] = test system: T-47D; experiment: NCI 60 cell line panel screening assay (SRB), T-47D; details: Homo sapiens, T47D, 48 h; for CC50: read-out: Log10 LC50 (converted)
[29] = test system: COLO 205; experiment: NCI 60 cell line panel screening assay (SRB), COLO 205; type: cell-based; details: Homo sapiens, COLO 205, 48 h, read-out: Log10 GI50 (converted)
[30] = test system: 786-0; experiment: cells; type: cell-based; details: Homo sapiens, 786-0, 48 h, read-out: Log10 GI50 (converted)
[31] = test system: MOLT-4; details: MOLT-4, FIG. 6
[32] = read-out: Log10 TGI (converted)
[33] = read-out: Log10 LC50 (converted)
[34] = read-out: Log10 GI50 (converted)

In the case of C[C@H]1[C@@H](F)O[C@@H]2O[C@@]3(C)CC[C@H]4[C@H](C)CC[C@@H]1[C@@]24OO3 [Compound VI, 10β-Fluoro-10-deoxoartemisinin], the CC50 ([1]; leukemia) is reported as greater than 100 µM, the CC50 ([2]; K562, K-562, leukemia, 48 h) is reported as greater than 100 µM and the CC50 [3] is reported as greater than 100 µM. The CC50 ([4]; HOP-92, 48 h, read-out: Log10 LC50 (converted)) was greater than 100 µM, the IC (TGI) ([4]; HOP-92, non-small cell lung cancer, 48 h, read-out: Log10 TGI (converted)) was 21.4 µM and the CC50 [5] was greater than 100 µM. It also gave an IC (TGI) [6, 32] greater than 100 µM, a CC50 ([7]; HCT-15, 48 h) greater than 100 µM and a CC50 ([8]; HT-29, 48 h, read-out: Log10 LC50 (converted)) greater than 100 µM. It also gave an IC (TGI) ([8]; HT-29, printed H129, colon cancer, 48 h, read-out: Log10 TGI) greater than 100 µM, a CC50 ([9]; SF-268, 48 h) greater than 100 µM and an IC (TGI) ([9]; SF-268, CNS cancer, 48 h, read-out: Log10 TGI) greater than 100 µM. It also gave a CC50 ([10]; SNB-19, 48 h) greater than 100 µM, an IC (TGI) ([10]; SNB-19, CNS cancer, 48 h, read-out: Log10 TGI) greater than 100 µM and a CC50 ([11]; SK-MEL-28, 48 h) greater than 100 µM. It also gave an IC (TGI) ([11]; SK-MEL-28, melanoma, 48 h) greater than 100 µM, a CC50 ([12]; Homo sapiens, UACC-257, 48 h, read-out: Log10 LC50 (converted)) greater than 100 µM and an IC (TGI) ([12]; Homo sapiens, UACC-257, 48 h; read-out: Log10 TGI (converted)) greater than 100 µM. The CC50 ([13]; OVCAR-3, 48 h) was greater than 100 µM, the IC (TGI) ([13]; OVCAR-3, ovarian cancer, 48 h, read-out: Log10 TGI (converted)) was greater than 100 µM and the CC50 ([14]; OVCAR-5, 48 h, read-out: Log10 LC50 (converted)) was greater than 100 µM. The GI50 ([14]; OVCAR-5, ovarian cancer, 48 h, read-out: Log10 GI50 (converted)) was 17 µM, the IC (TGI) ([14]; OVCAR-5, ovarian cancer, 48 h, read-out: Log10 TGI (converted)) was greater than 100 µM and the CC50 [15] was greater than 100 µM. The CC50 ([16]; SK-OV-3, 48 h, read-out: Log10 LC50 (converted)) was greater than 100 µM, the GI50 ([16]; SK-OV-3, ovarian cancer, 48 h, read-out: Log10 GI50 (converted)) was 24 µM and the IC (TGI) ([16]; SK-OV-3, ovarian cancer, 48 h) was greater than 100 µM. It also gave a CC50 ([17]; A498, 48 h, read-out: Log10 LC50 (converted)) greater than 100 µM, an IC (TGI) ([17]; A498, renal cancer, 48 h, read-out: Log10 TGI) greater than 100 µM and an IC (TGI) [18, 32] of 21.4 µM. The CC50 [19, 33] was greater than 100 µM, the IC (TGI) ([19]; renal cancer, read-out: Log10 TGI) was greater than 100 µM and the CC50 ([20]; TK-10, 48 h) was greater than 100 µM. It also gave a CC50 ([21]; Homo sapiens, DU-145, 48 h, read-out: Log10 LC50 (converted)) greater than 100 µM, a GI50 ([21]; Homo sapiens, DU-145, 48 h; read-out: Log10 GI50 (converted)) of 19.5 µM and an IC (TGI) ([21]; Homo sapiens, DU-145, 48 h; read-out: Log10 TGI) greater than 100 µM. The CC50 ([22]; MCF7, 48 h, read-out: Log10 LC50 (converted)) was greater than 100 µM, the IC (TGI) ([22]; MCF7, breast cancer, 48 h, read-out: Log10 TGI) was greater than 100 µM and the CC50 [23, 33] was greater than 100 µM. For the same compound, the IC (TGI) [23, 32] was 21.4 µM, the CC50 ([24]; BT-549, 48 h) was greater than 100 µM and the CC50 [25] was greater than 100 µM. For the same compound, the “Delta of Log10 TGI” value [26] was 1.18, the “Range of Log10 TGI” value [26] was 1.56 and the CC50 [27, 33] was greater than 100 µM. It also gave an IC (TGI) ([27]; read-out: Log10 TGI) greater than 100 µM and a CC50 [28] greater than 100 µM.
CC1CCC2C(C)C(CC(=O)c3ccc(C(=O)CC4OC5OC6(C)CCC7C(C)CCC(C4C)C57OO6)cc3)OC3OC4(C)CCC1C32OO4 (stereo not shown) [Dimer 38] showed a GI50 [1, 34] of less than 0.01 µM, a CC50 [1] greater than 100 µM and a GI50 ([2]; K562, 48 h, read-out: Log10 GI50 (converted)) of less than 0.01 µM. The CC50 ([2]; K562, 48 h) was greater than 100 µM, the GI50 [3, 34] was less than 0.01 µM and the CC50 ([3]; leukemia) was greater than 100 µM. For the same compound, the GI50 [29] was less than 0.01 µM, the GI50 [6, 34] was less than 0.01 µM and the CC50 ([7]; HCT-15, colon cancer, 48 h) was greater than 100 µM. The GI50 ([8]; HT-29, 48 h, read-out: Log10 GI50 (converted)) was less than 0.01 µM, the CC50 ([9]; SF-268, CNS cancer, 48 h) was greater than 100 µM and the CC50 ([10]; SNB-19, CNS cancer, 48 h) was greater than 100 µM. It also gave a CC50 ([11]; SK-MEL-28, melanoma, 48 h) greater than 100 µM, an IC (TGI) ([11]; SK-MEL-28, melanoma, 48 h) greater than 100 µM and a GI50 ([12]; Homo sapiens, UACC-257, 48 h, read-out: Log10 GI50 (converted)) of 0.0209 µM. The CC50 ([12]; Homo sapiens, UACC-257, 48 h; read-out: Log10 LC50 (converted)) was greater than 100 µM, the CC50 ([13]; OVCAR-3, ovarian cancer, 48 h) was greater than 100 µM and the IC (TGI) ([16]; SK-OV-3, ovarian cancer, 48 h) was 21.4 µM. It also gave a GI50 [30] of 0.0151 µM, a GI50 [18, 34] of 0.0112 µM and a CC50 ([20]; TK-10, renal cancer, 48 h) greater than 100 µM. For the same compound, the IC (TGI) ([20]; TK-10, renal cancer, 48 h, read-out: Log10 TGI) was greater than 100 µM, the CC50 ([21]; Homo sapiens, DU-145, 48 h; read-out: Log10 LC50 (converted)) was greater than 100 µM and the GI50 ([22]; MCF7, 48 h, read-out: Log10 GI50 (converted)) was less than 0.01 µM. For the same compound, the CC50 ([24]; BT-549, breast cancer, 48 h) was greater than 100 µM, the “concentration for cytostasis (PG 0)” value [31] was “approximately 10^-4 M” and the GI50 [25, 34] was 3.8 µM. For the same compound, the CC50 [25] was greater than 100 µM, the IC (TGI) ([25]; read-out: Log10 TGI) was greater than 100 µM and the “Delta of Log10 TGI” value [26] was 3.17. It also gave a GI50 [28, 34] of less than 0.01 µM and a CC50 [28] greater than 100 µM.
